The experiment relates to HCT-116 colorectal cancer cells. Briefly: Cell viability (alamarBlue) assay in HCT-116 cells. Type of experiment: cell-based, Human. To be noted: 72 hr exposure, four parameter logistic fit. As to the method:
Human HCT-116 colorectal cancer cells (CRC) and MDA-MB-231 breast cancer cells were purchased from the American Type Culture Collection (Manassas, Va.) and grown following ATCC recommendations, in the presence of fetal bovine serum (10%), 2 mM L-glutamine and antibiotics (100 IU/ml penicillin and 100 μg/ml streptomycin, Sigma). Cells were maintained at 37° C., 5% CO2 atmosphere.
Cell viability was measured using the alamarBlue assay (Invitrogen). In brief, cells were plated in 96-well plates in triplicate at 5K cells per well and incubated at 37° C., 5% CO2 atmosphere for 24 hr prior to the addition of drug or vehicle (0.3% DMSO) to the culture medium. After 72 hr, 10 μl/well alamarBlue was added to the wells and incubated for an additional 3 hr at 37° C., 5% CO2 atmosphere. Fluorescence ([…]/590EM nM) was measured with a SpectraMax microplate reader (Molecular Devices) and the resulting data were used to calculate cell viability, normalized to vehicle control. […]
Combinations between ganetespib and cisplatin were then performed in HCT-116 cells concurrently based on the IC50 for each agent in matrix format with 54 combination pairs for each drug. The combined drugs, as well as each drug alone, were incubated with the cells for 3 days and the surviving fraction of cells relative to control was determined using the alamarBlue assay.
A general note: Alamar Blue is a resazurin reagent that responds to reducing activity.

Two molecules from patent US10500193B2, “Combination therapy of HSP90 inhibitors with platinum-containing agents” (SYNTA PHARMACEUTICALS CORP., priority 2011, dated 2019) can be followed below.

Usually IC50 stands for the concentration that inhibits the measured activity by half.

SMILES strings stand for the structures.

As for `N.N.[Cl][Pt][Cl]` [cisplatin], the IC50 was around 5.7 µM.
In the case of `CC(C)c1cc(-c2nnc(O)n2-c2ccc3c(ccn3C)c2)c(O)cc1O` [ganetespib, 3-(2,4-DIHYDROXY-5- ISOPROPYL-PHENYL)-4-(1- METHYL-INDOL-5-YL)-5- HYDROXY-[1,2,4] TRIAZOLE], the IC50 (Homo sapiens) is around 0.032 µM.
